Measured values: patent US9497970B2, “Pesticide compounds” (priority 2013, dated 2016)

Key:
Format in all cases: in vivo
[1] = system: Green Peach Aphid (Myzus persicae); experiment: B.9 Green Peach Aphid (Myzus persicae), sprayed bell pepper plants; settings: 120 h, infested bell pepper plants sprayed, after 5 days, in comparison with untreated controls
Outline: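 Bell pepper plants at first true-leaf stage, infested with 30-50 aphids each, were sprayed electrostatically with compound in 50% acetone:water plus 0.01% nonionic surfactant. Held at about 25° C, 24-hr light, 20-40% RH. Mortality versus untreated controls scored after 5 days.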

[2] = system: Boll Weevil (Anthonomus grandis); experiment: B.3 Boll Weevil (Anthonomus grandis), microtiter plate insect diet; settings: 120 h, 800 ppm, sprayed onto insect diet, 5 days, in comparison with untreated controls, read-out: mortality (egg and larval)
Outline: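 Compounds in 25% DMSO/water sprayed at several concentrations onto insect diet in microtiter wells holding 5–10 A. grandis eggs, two replicates. Plates kept 5 days at about 25±1 °C and 75±5% RH. Egg and larval mortality scored visually.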

[3] = system: Tobacco Budworm (Heliothis virescens); experiment: B.7 Tobacco Budworm (Heliothis virescens) I, microtiter plate insect diet; settings: 120 h, 800 ppm, sprayed onto insect diet, 5 days, in comparison with untreated controls, read-out: mortality (egg and larval)
Outline: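 96-well plates with insect diet and 15-25 H. virescens eggs; compounds in 75% water/25% DMSO sprayed onto diet at several concentrations, two replicates. Plates held at about 28±1° C. and 80±5% relative humidity for 5 days, then egg and larval mortality scored visually.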

[4] = system: Diamond Back Moth (Plutella xylostella); experiment: B.1 Diamond Back Moth (Plutella xylostella), cabbage leaf dip; settings: foliar, 500 ppm, 3rd instar larvae on dipped cabbage leaves, 72 hours after treatment, in comparison with untreated controls, read-out: mortality
Outline: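 Cabbage leaves dipped in compound in 1:1 water:acetone with 0.01% Kinetic HV surfactant, air-dried, then infested with ten 3rd-instar larvae on moist filter paper. Mortality scored at 72 h after treatment; feeding damage rated on a 0-100% scale.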

[5] = system: Orchid thrips (dichromothrips corbetti); experiment: B.2 Orchid thrips (dichromothrips corbetti), floral-immersion technique; settings: adult thrips on dipped orchid petals, 72 hours after treatment, in comparison with untreated controls
Method: B.2 Orchid thrips (dichromothrips corbetti)
Dichromothrips corbetti adults used for bioassay were obtained from a colony maintained continuously under laboratory conditions. For testing purposes, the test compound is diluted in a 1:1 mixture of acetone:water (vol:vol), plus Kinetic HV at a rate of 0.01% v/v.
Thrips potency of each compound was evaluated by using a floral-immersion technique. All petals of individual, intact orchid flowers were dipped into treatment solution and allowed to dry in Petri dishes. Treated petals were placed into individual resealable plastic along with about 20 adult thrips. All test arenas were held under continuous light and a temperature of about 28° C. for duration of the assay. After 3 days, the numbers of live thrips were counted on each petal. The percent mortality was recorded 72 hours after treatment.

[6] = system: Orchid thrips (dichromothrips corbetti); experiment: B.12 Orchid thrips (dichromothrips corbetti), floral-immersion technique; settings: adult thrips on dipped orchid petals, 72 hours after treatment, in comparison with untreated controls
Outline: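 Whole orchid flower petals were dipped in compound in 1:1 acetone:water with 0.01% v/v Kinetic HV, dried, and enclosed with about 20 adult thrips. They were held under continuous light at about 28° C. Live thrips were counted and percent mortality recorded at 72 hours.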

[7] = system: Southern Armyworm (Spodoptera eridania), 2nd Instar Larvae; experiment: B.10 Southern Armyworm (Spodoptera eridania), 2nd Instar Larvae, sprayed lima bean plants; settings: 96 h, 300 ppm, larvae on sprayed lima bean plants, 4 days after treatment, in comparison with untreated controls, read-out: mortality
Outline: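 Lima bean plants at 1st true leaf stage sprayed electrostatically with compound in 50% acetone:50% water plus 0.01% nonionic surfactant, then infested with about 10 to 11 2nd instar larvae. Mortality and reduced feeding assessed 4 days after treatment at about 25° C versus untreated plants.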

[8] = system: Mediterranean Fruitfly (Ceratitis capitata); experiment: B.6 Mediterranean Fruitfly (Ceratitis capitata), microtiter plate insect diet; settings: 120 h, 800 ppm, sprayed onto insect diet, 5 days, in comparison with untreated controls, read-out: mortality (egg and larval)
Outline: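 Insect diet with 50-80 C. capitata eggs sprayed with compounds formulated in 75% water/25% DMSO, at different concentrations, two replications. Incubation at about 28±1° C and 80±5% relative humidity for 5 days, then egg and larval mortality assessed visually.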

[9] = system: Yellow Fever Mosquito (Aedes aegypti); experiment: whole plant or invertebrate; settings: 48 h, freshly hatched larvae in tap water, 2 days, in comparison with untreated controls, read-out: mortality (larval)
Outline: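 Freshly hatched A. aegypti larvae, 5–15 per well, were held in 200 μl tap water. Compounds formulated in 75:25 water:DMSO were sprayed at various concentrations, 2.5 μl per well by micro-atomizer, in two replicates.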

[10] = system: Cowpea Aphid (aphis craccivora); experiment: B.4 Cowpea Aphid (aphis craccivora), sprayed potted cowpea plants; settings: after 72 hours, in comparison with untreated controls
Method: B.4 Cowpea Aphid (aphis craccivora)
The active compound is dissolved at the desired concentration in a mixture of 1:1 (vol:vol) distilled water:acetone. Surfactant (Kinetic HV) is added at a rate of 0.01% (vol/vol). The test solution is prepared at the day of use.
Potted cowpea plants were colonized with approximately 50-100 aphids of various stages by manually transferring a leaf tissue cut from infested plant 24 hours before application. Plants were sprayed after the pest population has been recorded. Treated plants are maintained on light carts at about 28° C. Percent mortality was assessed after 72 hours.

Cc1cccc(C)c1NC(=S)N/N=C/c1ccc2c(ccc3c2ncn3-c2ccc(OC(F)(F)F)cc2)c1 [C-1, 1-(2,6-dimethylphenyl)-3-[(E)-[3-[4-(trifluoromethoxy)phenyl]benzo[e]benzimidazol-7-yl]methyleneamino]thiourea]
≥ 75%: mortality at 800 ppm [1] | mortality at 800 ppm [2] | mortality at 800 ppm [3] | mortality at 500 ppm [4] | mortality at 300 ppm [5] | mortality at 500 ppm [6] | mortality at 300 ppm [7] | mortality at 800 ppm [8] | mortality at 800 ppm [9]

Cc1ccccc1NC(=S)N/N=C/c1ccc2c(c1)CCc1c-2nnn1-c1ccc(OC(F)(F)F)cc1 [C-34, 1-(o-tolyl)-3-[[3-[4-(trifluoromethoxy)phenyl]-5,8-dihydro-4H-benzo[e]benzotriazol-7-ylidene]methylimino] thiourea]
≥ 75%: mortality at 500 ppm [10] | mortality at 800 ppm [8]

Cc1ccccc1NC(=S)N(C)/N=C/c1ccc2c(ccc3c2ncn3-c2ccc(OC(F)(F)F)cc2)c1 [C-87, 1-methyl-3-(o-tolyl)-1-[(E)-[3-[4-(trifluoromethoxy)phenyl]benzo[e]benzimidazol-7-yl]methyleneamino]thiourea]
≥ 75%: mortality at 800 ppm [2] | mortality at 500 ppm [4] | mortality at 500 ppm [10] | mortality at 800 ppm [8] | mortality at 800 ppm [9]
